Values joined by “and” are separate entries in the source; they are usually repeats but may differ in a detail not shown here. Equal values may be shown once.
Tested on: 677734-321-R-J1-PDC complex spheroid viability
Experiment: Anticancer human tumor 677734-321-R-J1-PDC patient-derived soft tissue sarcoma cell line growth inhibition [POLQ]
Settings: for viability, T/C: stronger effect = lower value
Procedure: Multicellular complex tumor spheroid response to Polymerase (POL) inhibitors (novobiocin, ART-558, RP6685) in combination with a variety of drugs and investigational agents in selected tumor cell lines
The POL inhibitors (novobiocin, ART-558, and RP6685) were evaluated both individually and in combination with standard of care and investigational anticancer small molecules within a complex spheroid model of solid tumors. . Complex spheroids include a stromal component modeled by human endothelial cells (HUVEC) and fibroblasts modeled by human mesenchymal stem cells (MSCs). The concentration ranges selected for each drug and investigational agent were based upon clinically achievable concentrations if the clinical Cmax of the agent was known.
Compounds. The drugs and investigational agents: novobiocin (NSC847541), ART-558 (NSC835418), RP-6685 (NSC848927), peposertib (NSC802822), ceralasertib (NSC780249), elimusertib (NSC800525), camonsertib (NSC841442), AZD-1390 (NSC803789), olaparib (NSC753686), talazoparib (NSC767125), rucaparib (NSC756644), sotorasib (NSC818433), MRTX-1133 (NSC836407), SN-38 (NSC673596), topotecan (NSC609699), epotoside (NSC141540), doxorubicin (NSC123127), gemcitabine (NSC613327), 5-fluorouracil (NSC19893), paclitaxel (NSC125973), vemurafenib (NSC761431), MSA-2 (NSC828583), SN-011 (NSC837082), adavosertib (NSC754352), prexasertib (NSC758257), carboplatin (NSC241240) and oxaliplatin (NSC266046), were obtained from the National Cancer Institute (NCI) Developmental Therapeutics Program Chemical Repository (21). The FDA-approved anticancer drug set is available from the Developmental Therapeutics Program at https://dtp.cancer.gov/organization/dscb/obtaining/. […] The stock solutions were prepared in dimethyl sulfoxide (DMSO, Sigma-Aldrich, St. Louis, MO, cat. D2650), except for the platinum compounds which were prepared in saline (Quality Biological, Gaithersburg, MD, cat. 114-055-101), at 800-fold the tested concentration and stored at -70 degrees C prior to their use. All drugs and investigational agents were tested over a range starting from a high concentration at or near the clinical Cmax and decreasing in half-log increments. If the clinical Cmax for an agent had not been determined, the highest concentration tested was 10 microM, except for SN-38, which was tested at a high concentration of 1 microM.
Cell Culture. All cells were maintained in an incubator at 37 degrees C and 5% CO2 with 95% humidity. The PDC lines were cultured according to standard operating procedures established by the NCI PDMR (https://pdmr.cancer.gov). Table 3 of the manuscript, lists the cell lines along with the number of the three cell types plated to form the mct-spheroids and media for tumor cell growth. After thawing, all PDC lines, except 997537-175-T-J1-PDC and 415267-285-R-J2-PDC, were cultured in Matrigel-coated flasks prepared with a working solution of 1X Ham's F-12 nutrient mix, without supplementation (Thermo Fisher Scientific, cat. 11765054), 100 U/mL penicillin-streptomycin (Thermo Fisher Scientific, cat. 15140122), and 2.5% Matrigel (Corning Inc., Corning, NY, cat. 354248) for the first three passages. The two PDC lines 997537-175-T-J1-PDC and 415267-285-R-J2-PDC were cultured on uncoated flasks. The 857933-349-R-J2-PDC line was cultured in 6C/Colon 1B media containing advanced DMEM/F-12 (Thermo Fisher Scientific, cat. 12634028), 10 mM HEPES (Thermo Fisher Scientific, cat. 15630080), 1X GlutaMAX supplement (Thermo Fisher Scientific, cat. 35050061), 0.1 mg/mL primocin (InvivoGen, San Diego, CA, cat. ant-pm-2), 10% defined fetal bovine serum, heat inactivated (HyClone Laboratories Inc., Logan, UT, cat. SH30070.03HI), 50% L-WRN conditioned media (ATCC, cat. CRL-3276), 1.25 mM N-Acetyl-L-cysteine (Sigma-Aldrich, cat. A9165), 10 mM nicotinamide (Sigma-Aldrich, cat. N0636), 1X B-27 supplement (Thermo Fisher Scientific, cat. 17504044), 1X N-2 supplement (Thermo Fisher Scientific, cat. […]

[1] = compound alone, run of 11/27/2023
[2] = compound alone, run of 12/05/2023
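Also: spheroids exposed to compounds for one week.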
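For viability, T/C in this document: 100% = vehicle DMSO treated spheroids.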

Row | Compound | viability, T/C (compound 0.0316 µM) | viability, T/C (compound 0.1 µM) | viability, T/C (compound 0.316 µM) | viability, T/C (compound 1 µM) | viability, T/C (compound 3.16 µM) | viability, T/C (compound 10 µM) | IC50 (curve of compound) | IC50 [1] [µM] | viability, T/C (compound 0.00316 µM) | viability, T/C (compound 0.01 µM) | IC50 [2] [µM] | viability, T/C (compound 0.000316 µM) | viability, T/C (compound 0.001 µM)
1 | CNCc1ccc(-c2[nH]c3cc(F)cc4c3c2CCNC4=O)cc1 | 105% and 107% and 106% | 101% and 75.4% and 97.1% | 102% and 106% and 99.2% | 101% and 99.7% and 105% | 108% and 101% and 99% | 106% and 82.2% and 88.9% | > 10 µM |  |  |  |  |  | 
2 | COC1C(OC(N)=O)C(O)C(Oc2ccc3c(O)c(NC(=O)c4ccc(O)c(CC=C(C)C)c4)c(=O)oc3c2C)OC1(C)C (centres undefined) | 103% [middle of 13 runs] | 104% [middle of 13 runs] | 110% [middle of 13 runs] | 104% [middle of 13 runs] | 106% [middle of 13 runs] | 106% [middle of 13 runs] |  | > 10 |  |  |  |  | 
3 | COc1cc(C2c3cc4c(cc3C(OC3OC5COC(C)OC5C(O)C3O)C3COC(=O)C23)OCO4)cc(OC)c1O (centres undefined) | 104% and 100% and 109% | 89.1% and 82.7% and 89.3% | 62.1% and 53.5% and 58% | 57.5% and 29.2% and 48.4% | 31.5% and 19.5% and 25.9% | 8.04% and 9.9% and 10.2% | 0.97 µM and 0.385 µM and 0.706 µM |  |  |  |  |  | 
4 | COc1cc2cc(C(=O)CCC(=O)O)sc2cc1OC | 100% and 108% and 101% | 94.4% and 93.7% and 102% | 82% and 105% and 114% | 95.8% and 98.6% and 106% | 97.5% and 107% and 106% | 105% and 99.9% and 113% | > 10 µM |  |  |  |  |  | 
5 | COc1ccc([C@@H](O)c2cc(-c3ncnc4cc(N5CCOCC5)ccc34)c(F)cc2Cl)nn1 | 107% and 98.4% and 105% | 105% and 99.2% and 102% | 100% and 104% (2×) | 96.4% and 81.6% and 94.7% | 73.8% and 64.6% and 87.4% | 49.8% and 45.3% and 51% | 9.83 µM and 7.58 µM and > 10 µM |  |  |  |  |  | 
6 | COc1cccc(OCCCN)c1-c1cc(Nc2cnc(C#N)cn2)n[nH]1 | 13.8% and 5.42% and 7.19% | 8.96% and 5.9% and 8.69% | 11% and 6.62% and 7.27% | 10.3% and 5.14% and 6.13% |  |  | 0.00761 µM and 0.00404 µM and 0.00615 µM |  | 96.4% and 60.4% and 103% | 35.5% and 11.5% and 11.2% |  |  | 
7 | COc1cccc2c1C(=O)c1c(O)c3c(c(O)c1C2=O)CC(O)(C(=O)CO)CC3OC1CC(N)C(O)C(C)O1 (centres undefined) | 86.2% and 48.1% and 72.7% | 48.5% and 29% and 48.7% | 8% and 4.1% and 6.65% | 0.91% and 1.65% | 2.59% and 1.37% and 2.03% | 3.4% and 0.66% and 2.59% | 0.0956 µM and < 0.0316 µM and 0.0938 µM |  |  |  |  |  | 
8 | Cc1cccc(N(C)C(=O)C2C(O)CCN2c2nc(C)cc(C(F)(F)F)c2C#N)c1 (centres undefined) | 101% [middle of 13 runs] | 103% [middle of 13 runs] | 107% [middle of 13 runs] | 99.2% [middle of 13 runs] | 102% [middle of 13 runs] |  |  | > 10 |  |  | > 10 |  | 
9 | Cn1ncnc1[C@H]1c2n[nH]c(=O)c3cc(F)cc(c23)N[C@@H]1c1ccc(F)cc1 | 98.8% and 94.5% and 106% | 93% and 75.8% and 93.5% |  |  |  |  | > 0.1 µM |  | 97.4% and 107% and 117% | 105% and 94.7% and 104% |  | 101% and 87.2% and 106% | 104% and 93.2% and 95.4%
10 | Nc1ccc(C#CCN(C(=O)Cc2ncc(C(F)(F)F)cc2C(F)(F)F)c2ccc(F)cc2)nn1 |  | 104% [middle of 13 runs] | 103% [middle of 13 runs] |  | 99.7% [middle of 13 runs] |  |  |  |  |  | > 10 |  | 
11 | Nc1ccn(C2OC(CO)C(O)C2(F)F)c(=O)n1 (centres undefined) | 34.7% and 15.9% and 21.9% | 14.8% and 10.8% and 14.6% | 16.7% and 11.1% and 12.8% | 14.4% and 10% and 14.7% | 14.3% and 7.7% and 10.6% | 12.5% and 6.81% and 8.93% | < 0.0316 µM |  |  |  |  |  | 
12 | O=C(Nc1ccc(O)c(NS(=O)(=O)c2ccc(F)cc2)c1)c1ccc(-c2ccccc2)cc1 | 96.9% and 104% and 110% | 100% and 107% and 109% | 108% and 112% and 104% | 94.2% and 98.8% and 106% | 68.3% and 79.4% and 89.6% | 21.9% and 20.6% and 32.8% | 4.96 µM and 5.6 µM and 7.07 µM |  |  |  |  |  | 
13 | O=C(c1cc(Cc2n[nH]c(=O)c3ccccc23)ccc1F)N1CCN(C(=O)C2CC2)CC1 | 102% and 15.6% and 95.7% | 100% and 20.2% and 94.9% | 104% and 16.8% and 106% | 105% and 20.7% and 100% | 97.5% and 14.8% and 101% | 77.8% and 12.2% and 58.9% |  |  |  |  |  |  | 
14 | O=c1[nH]cc(F)c(=O)[nH]1 | 116% and 111% and 113% | 101% and 86.4% and 96.7% | 108% and 104% (2×) | 85.4% and 84.6% and 91.5% | 54.7% and 62.5% and 51.4% | 44.1% and 59% and 42.7% | 5.22 µM and > 10 µM and 3.84 µM |  |  |  |  |  | 
